Data from article PMC9701179, “New tricyclic systems as photosensitizers towards triple negative breast cancer cells” (Archives of Pharmacal Research, 2022).
Like-named read-outs stand apart in the source and are kept apart here.

What was measured:
[1] = system: MDA-MB-231 cells; assay: MTT cytotoxicity/photocytotoxicity test on human TNBC MDA-MB-231 cells; type: cell-based; conditions: Homo sapiens
Description: The irradiation device used for the irradiation of cell cultures during the assays was a black box equipped with two Philips UVA lamps with an irradiance of 17 mW cm^−2 and a centered emission peak at 365 nm; UVA irradiance was measured using a Waldmann Variocontrol radiometer, equipped with a UVA sensor. The box was maintained at room temperature inside with a fan and the multiwell plates were placed onto a water-refrigerated metal block.
Human triple negative (TNBC) breast MDA-MB-231 carcinoma cells were obtained from American Type Culture Collection (ATCC, Rockville, MD, USA). Human embryonic kidney HEK293 cells were obtained from the European Collection of Cell Cultures (ECACC, Salisbury, UK). Cell lines were maintained in the logarithmic phase at 37 °C in a 5% CO2 atmosphere using the following culture media containing 10% foetal calf serum (Euroclone, Milan, Italy), antibiotics (50 units/mL penicillin and 50 μg/mL streptomycin) and 2 mM l-glutamine: (i) RPMI-1640 medium (Euroclone, Milan, Italy) for MDA-MB-231 4 cells; (ii) DMEM (Euroclone, Milan, Italy) for HEK293 cells.
Cells (5–8 × 10^3 cells/well, dependent upon the growth characteristics of the cell line) were seeded in 96-well microplates in growth medium (100 μL). After 24 h, the medium was removed and replaced with a fresh one containing the compound to be studied at the appropriate concentration. Triplicate cultures were established for each treatment. For photocytotoxicity studies, after 1 h of incubation the medium was replaced with PBS and cells were treated with 2.0 J cm^−2 of UVA light. After irradiation, PBS was replaced with complete proliferation media. For pre-irradiation studies, instead, compounds in PBS were irradiated with 2.0 J cm^−2 of UVA light and subsequently cells were treated with pre-irradiated solutions. Following 24 h, each well was treated with 10 μL of a 5 mg/mL MTT saline solution, and following 5 h of incubation, 100 μL of a sodium dodecyl sulfate (SDS) solution in HCl 0.01 M were added. After an overnight incubation, cell growth inhibition was detected by measuring the absorbance of each well at 570 nm using a Bio-Rad 680 microplate reader. Mean absorbance for each drug dose was expressed as a percentage of the control untreated well absorbance and plotted against drug concentration. IC50 values, the drug concentrations that reduce the mean absorbance at 570 nm to 50% of those in the untreated control wells, were calculated by the four-parameter logistic (4-PL) model. Evaluation was based on means from at least four independent experiments.
The new synthetized pyrrolo[1,2-h][1,7]naphthyridinones 7 and pyrido[2,3-c]pyrrolo[1,2-a]azepinones 8 were screened for their cytotoxicity (in the dark) and photocitotoxicity (upon UVA light irradiation at 2.0 J/cm^2) profile on human TNBC cells, MDA-MB-231. The cytotoxicity/photocytotoxicity parameters, expressed in terms of IC50 values obtained by MTT test after 24 h of drug-exposure, are listed in Table 2.

[2] = UVA photostability (UV-Vis spectra in PBS); type: physicochemical; conditions: for Stability under UVA irradiation (UV-Vis spectra): 2.2 × 10^−5 M, increasing UVA doses 0–20 J/cm^2; for Photodegradation at the light dose of the cytotoxic experiments: UVA 2 J/cm^2, decrease of absorbance of main UV-Vis peaks (data not shown)
Description: Samples containing each compound (2.2 × 10^− 5 M) dissolved in PBS (0.04 M) were irradiated with increasing UVA doses from 0 to 20 J/cm^2 ([…], 5, 10, 15 and 20 J/cm^2), and their absorption spectrum was measured, with a Cary 50 Scan UV–Visible Spectrophotometer.
The most significant 7h and 8e pyridone derivatives were tested for their stability under UVA irradiation. […] Moreover, isosbestic points were visible, indicating the formation of one or more new stable species in equilibrium with the intact dark compound.
Fig. 6 UV–Vis Absorption spectra of 7h (left) and 8e (right) in PBS irradiated under 0, 2, 5, 10, 15 and 20 J/cm^2 with UVA light. 0 J/cm^2, red spectrum; 20 J/cm^2, light green spectrum

[3] = system: MDA-MB-231 cells; assay: Quantification of thiols (DTNB assay); type: cell-based, human; conditions: MDA-MB-231, 25 µM; for Intracellular thiols (qualitative): UVA 2.0 J/cm^2
Description: The MDA-MB-231 cells (2 × 10^5) were seeded in a six-well plate in growth medium (4 mL). After 24 h, cells were incubated with tested compounds (25 µM) for 90 min, and after that exposed to UVA light (2.0 J/cm^2). Subsequently, after 24 h, the thiol content was measured as previously described (Rigobello et al. [2009]).
Fig. 4 Cellular ROS production (A) and total thiol redox state (B). A Effect of UVA activated tested compounds (25 µM) or antimycin (3 µM) on hydrogen peroxide formation in MDA-MB-231 cancer cells. B Sulfhydryl content in MDA-MB-231 cancer cells incubated for 24 h with UVA activated tested compounds. The sulfhydryl group amount was determined by the DTNB assay. Error bars indicate S.D

[4] = system: MDA-MB-231 cells; assay: Mitochondrial membrane potential (Mito-ID kit); type: cell-based, human; conditions: MDA-MB-231, UVA 2.0 J/cm^2; CCCP positive control
Description: The ΔΨ was assayed using the Mito-ID® Membrane Potential Kit according to the manufacturer’s instructions (Enzo Life Sciences, Farmingdale, NY, USA) as previously described. Briefly, MDA-MB-231 cells (8 × 10^3 per well) were seeded in 96-well plates; after 24 h, cells were washed with PBS and loaded with Mito-ID Detection Reagent for 30 min at 37 °C in the dark. Afterwards, cells were incubated with increasing concentrations of tested compounds for 90 min and after that exposed to UVA light (2.0 J/cm^2). CCCP (Carbonyl cyanide 3-chlorophenyl-hydrazone) was used as positive control. Fluorescence intensity was estimated using a VICTOR X3 (PerkinElmer, USA) plate reader at 490 (excitation) and 590 nm (emission).
Induction of ROS production can in turn prompt the collapse of mitochondrial membrane potential as well as loss of mitochondrial integrity and functioning. […] MDA-MB-231 TNBC cells were treated with tested compounds upon UVA irradiation and the percentage of cells with hypopolarized mitochondrial membrane potential was determined fluorometrically by means of the Mito-ID® Membrane Potential Kit.
Fig. 5 Effects on mitochondrial membrane potential (A) and cell death induction (B) in human breast MDA-MB-231 cancer cells. A Cells were treated with 7h and 8e and stained with TMRM (10 nM). Fluorescence was estimated at 490 nm (excitation) and 590 nm (emission). Data are the means of five independent experiments. Error bars indicate S.D. * P < 0.05. B Cells were treated with concentrations of 7h and 8e equal to IC50 for 24 h and stained with the fluorescent dyes Hoechst 33342 and PI

[5] = MDA-MB-231, in the dark, 1 h pre-treatment, recovered for total 24 h, read-out: Dark IC50 (µM) ± S.D
[6] = light or radiation study, MDA-MB-231, 1 h pre-treatment, UVA 2.0 J/cm^2, recovered for total 24 h, read-out: UVA (2.0 J/cm^2) IC50 (µM) ± S.D

| Compound | IC50 [1, 5] [µM] | IC50 [1, 6] [µM] | Stability under UVA irradiation (UV-Vis spectra) [2] | Photodegradation at the light dose of the cytotoxic experiments [2] | Intracellular thiols (qualitative) [3] | Cells with depolarized mitochondria (mitochondrial membrane potential) [4] | Decrease of intracellular sulfhydryl content ([3]; UVA 2.0 J/cm^2, after 24 h of exposure) |
| --- | --- | --- | --- | --- | --- | --- | --- |
| CCOC(=O)c1ccc2n1CCCc1cc(S(=O)(=O)c3ccccc3)c(OC)nc1-2 [Compound 8e, Ethyl 3-(benzenesulfonyl)-2-methoxy-6,7-dihydro-5H-pyrido[2,3-c]pyrrolo[1,2-a]azepine-9-carboxylate] | > 50 | 15.3 ± 1.7 | very unstable under light | photodegradation was very weak | significantly decreased | significant increase of cells with depolarized mitochondria |  |
| CCOC(=O)c1ccc2n1CCc1cc(S(=O)(=O)c3ccccc3)c(OC)nc1-2 [Compound 7h, Ethyl 3-(benzenesulfonyl)-2-methoxy-5,6-dihydropyrrolo[1,2-h][1,7]naphthyridine-8-carboxylate] | > 50 | 4.4 ± 0.5 | very unstable under light | photodegradation was very weak | significantly decreased | significant increase of cells with depolarized mitochondria | about 45% |
